According to patent US6440978B2, “Therapeutic agent for dermatitis” (Nippon Zoki Pharmaceutical Co., Ltd., priority 2000, dated 2002):

Columns and labels:
[1] = test system: antigen-induced flare-up reaction in a mouse; test: Suppressive action against antigen-induced flare-up reaction in a mouse; format: in vivo, BALB/c female mice; details: 3% ointment
Procedure: Seven week old BALB/c female (SPF) mice of were selected as subjects. According to a method of Tanaka, et al. (Allergy, 46, pages 42-48(1997)), egg white albumin (final concentration: 2 μg/mL) and aluminum hydroxide gel (final concentration: 10 mg/mL) were suspended in physiological saline and 0.5 mL of the suspension was administered to effect intraperitoneal sensitization on the first day of the test. On the 14th day of the test, an additional sensitization was carried out under the same conditions. Further, on the 28th day of the test, 25 μL of egg albumin (a 20 μg/mL solution in physiological saline) was intradermally administered to the right ear of a mouse to induce a swelling reaction.
This swelling reaction reached its peak at 4 hours after the challenge by the antigen. Even after 24 to 48 hours, a significant swelling reaction was noted as compared with the control in which antigen was merely challenged (not sensitized). […] On the contrary, the swelling from 24 to 48 hours after the challenge is thought to be the so-called delayed-type swelling reaction accompanied by infiltration of eosinophils, neutrophils and lymphocytes. In addition, a flare-up reaction having a peak at 24 hours after the challenge appeared on the ear of the antigen-induced site. Like swelling, flare-up is an important symptom of inflammation. Although the mechanism of the flare-up reaction is ambiguous, it may be a flare-up reaction of a delayed type in view of the time course of its expression. As such, this model animal in which the inflammation of both immediate and delayed types are induced is appropriate as a model animal for atopic dermatitis. In the following experiment, the effectiveness of the therapeutic agent for dermatitis according to the present invention was tested using the said model animal.
Each of a vehicle (control) and an agent for the test (the therapeutic agent for dermatitis according to the present invention or a positive control) was applied to the antigen-induced site (right auricle) of a mouse to induce a swelling reaction in accordance with Example 2 at 2 hours before and 4 hours after the challenge. The right ear was observed by naked eye and the degree of flare-up was scored according to the following standard:
1: in such a degree that a flare-up was confirmed, the color is clear red or pale red and the size was small
2: between score 3 and score 1
3: color of the flare-up was clearly red and the size of the flare-up was big

[2] = target: T1, phosphodiesterase type II (PDE II) (Homo sapiens, UniProt O00408); test: Inhibitory action against phosphodiesterase type II; format: biochemical; details: 100 μM; PDE II from human platelets
T1 construct: phosphodiesterase type II (PDE II) partially purified from human platelets; from tissue; host or cells: human platelets
Excerpt: (§1) The inhibitory action of the compounds of the present invention against activities of various phosphodiesterase (PDE) isozymes were investigated using the conventional method. Each of the inhibitory action of the compounds of the present invention on the activities of phosphodiesterase type II (PDE II) partially purified from human platelets, phosphodiesterase type III […] partially purified from human platelets, phosphodiesterase type IV (PDE IV) partially purified from human U937 promonocytic leukemia cells and phosphodiesterase type V (PDE V) partially purified from human platelets were measured.

[3] = target: T2, phosphodiesterase type III (Homo sapiens, UniProt Q14432); test: Inhibitory action against phosphodiesterase type III; format: biochemical; details: 100 μM; PDE III from human platelets
T2 construct: phosphodiesterase type III […] partially purified from human platelets; from tissue; host or cells: human platelets
Excerpt: as §1

[4] = test system: phosphodiesterase type IV (PDE IV); test: Inhibitory action against phosphodiesterase type IV; format: biochemical, human
Excerpt: as §1

[5] = target: T3, phosphodiesterase type V (PDE V) (Homo sapiens, UniProt O76074); test: Inhibitory action against phosphodiesterase type V; format: biochemical; details: 100 μM; PDE V from human platelets
T3 construct: phosphodiesterase type V (PDE V) partially purified from human platelets; from tissue; host or cells: human platelets
Excerpt: as §1

T2 sequence (Q14432 whole entry): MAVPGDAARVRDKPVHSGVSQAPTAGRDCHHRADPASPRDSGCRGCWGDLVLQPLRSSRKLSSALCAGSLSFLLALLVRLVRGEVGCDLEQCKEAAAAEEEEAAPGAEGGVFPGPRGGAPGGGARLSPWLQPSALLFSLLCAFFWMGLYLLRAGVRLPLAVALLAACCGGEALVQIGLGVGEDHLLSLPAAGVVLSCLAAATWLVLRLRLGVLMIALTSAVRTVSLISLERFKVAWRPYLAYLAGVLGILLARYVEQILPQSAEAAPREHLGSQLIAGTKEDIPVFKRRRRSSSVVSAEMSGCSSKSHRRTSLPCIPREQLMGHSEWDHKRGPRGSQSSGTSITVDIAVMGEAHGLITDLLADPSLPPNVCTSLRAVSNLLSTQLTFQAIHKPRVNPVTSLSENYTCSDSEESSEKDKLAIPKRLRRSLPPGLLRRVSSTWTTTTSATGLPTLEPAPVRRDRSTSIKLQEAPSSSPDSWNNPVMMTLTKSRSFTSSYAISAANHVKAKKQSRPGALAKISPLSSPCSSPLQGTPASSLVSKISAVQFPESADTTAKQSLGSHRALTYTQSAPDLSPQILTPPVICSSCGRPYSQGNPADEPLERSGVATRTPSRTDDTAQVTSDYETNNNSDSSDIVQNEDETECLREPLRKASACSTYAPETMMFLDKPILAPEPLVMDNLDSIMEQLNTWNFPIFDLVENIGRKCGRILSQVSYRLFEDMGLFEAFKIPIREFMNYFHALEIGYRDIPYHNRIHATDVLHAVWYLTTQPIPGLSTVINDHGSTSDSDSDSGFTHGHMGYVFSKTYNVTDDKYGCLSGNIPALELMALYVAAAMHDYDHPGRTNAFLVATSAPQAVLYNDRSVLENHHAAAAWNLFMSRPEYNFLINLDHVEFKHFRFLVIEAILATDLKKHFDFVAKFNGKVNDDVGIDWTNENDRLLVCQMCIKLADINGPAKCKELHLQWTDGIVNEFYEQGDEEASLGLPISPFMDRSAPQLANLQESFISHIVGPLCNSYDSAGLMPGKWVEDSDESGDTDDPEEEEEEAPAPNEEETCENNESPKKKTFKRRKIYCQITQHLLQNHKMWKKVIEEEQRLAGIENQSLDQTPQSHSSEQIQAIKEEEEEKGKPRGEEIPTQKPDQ
T1 sequence (O00408 whole entry): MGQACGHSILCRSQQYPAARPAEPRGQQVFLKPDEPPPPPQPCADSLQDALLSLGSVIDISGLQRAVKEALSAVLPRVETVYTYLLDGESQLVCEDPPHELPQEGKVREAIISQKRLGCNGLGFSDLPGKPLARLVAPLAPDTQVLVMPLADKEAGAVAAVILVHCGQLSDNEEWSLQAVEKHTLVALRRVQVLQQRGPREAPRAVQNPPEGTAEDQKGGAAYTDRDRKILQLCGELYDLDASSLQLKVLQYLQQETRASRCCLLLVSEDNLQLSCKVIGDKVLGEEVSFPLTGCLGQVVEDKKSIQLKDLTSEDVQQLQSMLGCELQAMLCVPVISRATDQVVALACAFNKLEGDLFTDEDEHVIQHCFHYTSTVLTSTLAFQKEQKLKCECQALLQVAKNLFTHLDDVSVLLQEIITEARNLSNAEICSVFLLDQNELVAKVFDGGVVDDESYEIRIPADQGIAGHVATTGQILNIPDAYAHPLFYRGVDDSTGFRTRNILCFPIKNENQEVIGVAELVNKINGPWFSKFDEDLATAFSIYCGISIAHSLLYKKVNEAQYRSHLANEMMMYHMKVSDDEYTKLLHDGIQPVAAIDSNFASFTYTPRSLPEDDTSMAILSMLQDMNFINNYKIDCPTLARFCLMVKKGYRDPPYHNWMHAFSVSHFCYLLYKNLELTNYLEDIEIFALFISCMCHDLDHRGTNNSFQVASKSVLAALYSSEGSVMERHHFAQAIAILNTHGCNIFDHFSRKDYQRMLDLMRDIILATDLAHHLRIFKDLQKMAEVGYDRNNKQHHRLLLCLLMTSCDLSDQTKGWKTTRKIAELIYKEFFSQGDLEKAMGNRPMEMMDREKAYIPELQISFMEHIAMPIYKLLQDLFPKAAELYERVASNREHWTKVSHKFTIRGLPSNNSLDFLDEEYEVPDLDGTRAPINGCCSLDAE

suppression activity against PDE II [2]: 6%
suppression activity against PDE III [3]: 22%
dose dependence of PDE IV inhibitory effect [4]: dose dependent
suppression activity against PDE IV ([4]; 100 μM, PDE IV from human U937 promonocytic leukemia cells): 82%
PDE isozyme selectivity ([4]; PDE IV versus PDE II, III and V at 100 μM): PDE IV selective inhibitory effect
suppression activity against PDE V [5]: 15%
SMILES: Nc1ccc2c(=O)n(Cc3ccccc3)c(=O)n(-c3ccccc3)c2n1 [Compound 1, 7-amino-3-benzyl-1,2,3,4-tetrahydro-1-phenylpyrido[2,3-d]pyrimidin-2,4-dione]
Suppression Rate of flare-up score at 4 hr after Challenge ([1]; 4 hr after challenge): (0.0%)
Flare-up Score at 4 hr after Challenge ([1]; 4 hr after challenge, score 0-3): 0.8 ± 0
Suppression Rate of flare-up score at 24 hr after Challenge ([1]; 24 hr after challenge): (32.0%)
Flare-up Score at 24 hr after Challenge ([1]; 24 hr after challenge, score 0-3): 1.7 ± 0.2
